Measurements as given in ChEMBL document CHEMBL1201862, “PubChem BioAssay data set” (2004).
Calls of active or inactive are those of the source.

Legend:
[1] = biological target: T1, Tyrosine-protein phosphatase non-receptor type 22 (Homo sapiens, UniProt Q9Y2R2); test: SAR LYP1 Fluorescent Assay using OMFP substrate for In Vitro dose response studies - Set 3. [Related pubchem assays (depositor defined):AID1779, AID1784, AID2140, AID2686]; type: functional
T1 sequence (Q9Y2R2 whole entry): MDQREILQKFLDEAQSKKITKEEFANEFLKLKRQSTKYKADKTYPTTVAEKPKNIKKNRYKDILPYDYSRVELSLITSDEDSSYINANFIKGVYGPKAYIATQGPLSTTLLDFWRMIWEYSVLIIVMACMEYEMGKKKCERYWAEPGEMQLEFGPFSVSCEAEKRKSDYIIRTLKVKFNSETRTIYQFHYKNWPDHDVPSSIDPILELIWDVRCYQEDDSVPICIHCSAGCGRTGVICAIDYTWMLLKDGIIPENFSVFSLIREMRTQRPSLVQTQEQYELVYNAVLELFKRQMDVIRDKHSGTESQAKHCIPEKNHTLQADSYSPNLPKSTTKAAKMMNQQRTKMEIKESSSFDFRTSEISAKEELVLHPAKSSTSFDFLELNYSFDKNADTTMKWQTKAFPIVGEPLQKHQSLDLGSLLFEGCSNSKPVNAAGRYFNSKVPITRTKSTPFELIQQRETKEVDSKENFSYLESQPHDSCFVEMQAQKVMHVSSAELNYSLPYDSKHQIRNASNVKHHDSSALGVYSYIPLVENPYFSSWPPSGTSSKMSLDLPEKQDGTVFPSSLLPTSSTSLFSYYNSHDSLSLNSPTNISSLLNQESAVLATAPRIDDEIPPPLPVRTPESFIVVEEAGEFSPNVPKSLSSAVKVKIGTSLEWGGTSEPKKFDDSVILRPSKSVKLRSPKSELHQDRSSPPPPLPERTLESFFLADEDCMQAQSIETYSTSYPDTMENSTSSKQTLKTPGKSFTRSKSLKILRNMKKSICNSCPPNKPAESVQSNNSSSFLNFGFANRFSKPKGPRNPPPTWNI

[2] = biological target: T2, G-protein coupled receptor 35 (Homo sapiens, UniProt Q9HC97); test: inhibition of zaprinast-stimulated GPR35 beta-arrestin translocation – imaging, U2OS, beta-arrestin-GFP, zaprinast agonist, primary screen (AID 2058); type: functional;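 note: antagonist potency meaning inhibition of agonist-induced arrestin redistribution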
T2 sequence (Q9HC97 whole entry): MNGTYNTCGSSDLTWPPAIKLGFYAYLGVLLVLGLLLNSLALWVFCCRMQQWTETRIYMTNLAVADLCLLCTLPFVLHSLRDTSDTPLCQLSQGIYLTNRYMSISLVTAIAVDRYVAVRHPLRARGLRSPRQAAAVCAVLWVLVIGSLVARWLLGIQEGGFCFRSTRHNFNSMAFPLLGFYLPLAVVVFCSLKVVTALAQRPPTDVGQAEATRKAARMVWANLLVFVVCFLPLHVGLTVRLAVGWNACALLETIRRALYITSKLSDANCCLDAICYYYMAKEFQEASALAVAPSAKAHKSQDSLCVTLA

[3] = biological target: T1, Tyrosine-protein phosphatase non-receptor type 22; test: inhibition of lymphoid tyrosine phosphatase LYP – biochemical, pCAP fluorogenic substrate, fluorescence, set 3, SAR follow-up (AID 449727); type: functional
[4] = biological target: T3, G-protein coupled receptor 55 (Homo sapiens, UniProt Q9Y2T6); test: blockers of GPR55 signalling, imaged – imaging, image-based, counter-screen for GPR35 antagonist project, SAR follow-up (AID 2397); type: functional
T3 sequence (Q9Y2T6 whole entry): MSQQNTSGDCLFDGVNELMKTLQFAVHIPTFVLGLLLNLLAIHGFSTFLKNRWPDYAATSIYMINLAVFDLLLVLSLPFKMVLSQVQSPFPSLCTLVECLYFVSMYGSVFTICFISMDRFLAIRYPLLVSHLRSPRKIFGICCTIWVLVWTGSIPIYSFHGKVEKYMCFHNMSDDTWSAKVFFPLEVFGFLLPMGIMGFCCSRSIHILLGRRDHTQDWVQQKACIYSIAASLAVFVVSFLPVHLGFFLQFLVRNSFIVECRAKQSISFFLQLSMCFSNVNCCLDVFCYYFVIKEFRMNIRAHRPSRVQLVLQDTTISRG

[5] = biological target: T2, G-protein coupled receptor 35; test: SAR Analysis for the identification of Selective Antagonists of ERK1/2 Activity in GPR35-Overexpressing U2OS Cells. [Related pubchem assays: 2079, 2058 ]; type: functional, cell-based
[6] = biological target: T4, Tyrosine-protein phosphatase non-receptor type 7 (Homo sapiens, UniProt P35236); test: inhibition of hematopoietic tyrosine phosphatase HePTP – biochemical, set 2, SAR follow-up (AID 449736); type: functional
T4 sequence (P35236 whole entry): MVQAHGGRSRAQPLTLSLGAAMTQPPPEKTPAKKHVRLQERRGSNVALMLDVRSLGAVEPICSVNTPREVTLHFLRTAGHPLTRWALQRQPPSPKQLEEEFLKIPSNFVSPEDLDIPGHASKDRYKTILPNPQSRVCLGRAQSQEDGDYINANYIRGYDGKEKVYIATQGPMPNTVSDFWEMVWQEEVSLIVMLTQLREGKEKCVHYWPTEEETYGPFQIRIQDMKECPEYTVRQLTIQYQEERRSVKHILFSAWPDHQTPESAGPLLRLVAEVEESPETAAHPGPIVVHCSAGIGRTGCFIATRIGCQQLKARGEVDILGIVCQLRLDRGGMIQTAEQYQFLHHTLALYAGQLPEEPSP

[7] = biological target: Tyrosine-protein phosphatase non-receptor type 12 (Homo sapiens, UniProt Q05209); test: SAR Selectivity Analysis of small molecule inhibitors of PEST using pCAP in a fluorescence assay. [Related pubchem assays (depositor defined):AID1779, AID1784, AID2135]; type: functional
[8] = biological target: Integrin alpha-4 (Homo sapiens, UniProt P13612); test: allosteric modulators of alpha4 integrin VLA-4 – cell-based, LIBS antibody binding, flow cytometry, SAR follow-up (AID 488791); type: functional
Sequence of Integrin alpha-4 (P13612 whole entry): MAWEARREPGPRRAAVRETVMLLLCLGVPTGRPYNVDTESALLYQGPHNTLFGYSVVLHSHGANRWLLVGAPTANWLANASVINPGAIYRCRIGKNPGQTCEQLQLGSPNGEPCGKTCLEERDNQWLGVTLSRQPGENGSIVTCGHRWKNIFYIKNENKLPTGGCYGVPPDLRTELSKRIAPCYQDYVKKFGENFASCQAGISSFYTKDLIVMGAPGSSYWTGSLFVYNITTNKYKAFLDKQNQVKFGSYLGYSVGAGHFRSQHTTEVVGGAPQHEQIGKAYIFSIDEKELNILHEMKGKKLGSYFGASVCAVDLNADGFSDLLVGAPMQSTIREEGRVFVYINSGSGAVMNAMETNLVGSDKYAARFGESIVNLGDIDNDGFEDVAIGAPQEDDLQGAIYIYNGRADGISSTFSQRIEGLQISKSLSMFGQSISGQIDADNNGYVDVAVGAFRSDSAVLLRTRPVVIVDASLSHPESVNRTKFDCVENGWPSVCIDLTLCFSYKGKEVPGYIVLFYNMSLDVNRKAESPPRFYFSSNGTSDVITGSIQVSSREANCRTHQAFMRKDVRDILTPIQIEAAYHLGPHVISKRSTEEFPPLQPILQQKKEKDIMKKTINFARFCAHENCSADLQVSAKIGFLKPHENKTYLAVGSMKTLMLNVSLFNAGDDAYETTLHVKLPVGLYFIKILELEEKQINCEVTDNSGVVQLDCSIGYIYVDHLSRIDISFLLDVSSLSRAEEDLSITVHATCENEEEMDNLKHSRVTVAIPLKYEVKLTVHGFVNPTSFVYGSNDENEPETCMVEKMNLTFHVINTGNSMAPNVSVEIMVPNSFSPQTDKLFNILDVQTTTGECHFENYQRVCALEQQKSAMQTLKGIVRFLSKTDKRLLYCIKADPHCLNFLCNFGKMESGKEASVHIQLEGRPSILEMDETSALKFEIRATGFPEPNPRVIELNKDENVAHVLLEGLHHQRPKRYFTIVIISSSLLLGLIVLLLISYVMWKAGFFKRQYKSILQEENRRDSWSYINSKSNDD

[9] = biological target: Glyceraldehyde-3-phosphate dehydrogenase (Homo sapiens, UniProt P04406)
[10] = biological target: Alkaline phosphatase, placental type (Homo sapiens, UniProt P05187); test: human placental alkaline phosphatase inhibition – biochemical, luminescence, confirmation (AID 1512); type: functional
[11] = biological target: T5, Alkaline phosphatase, tissue-nonspecific isozyme (Homo sapiens, UniProt P05186); test: potency against alkaline phosphatase TNAP – biochemical, luminescent, dose response, SAR follow-up (AID 1056)
T5 sequence (P05186 whole entry): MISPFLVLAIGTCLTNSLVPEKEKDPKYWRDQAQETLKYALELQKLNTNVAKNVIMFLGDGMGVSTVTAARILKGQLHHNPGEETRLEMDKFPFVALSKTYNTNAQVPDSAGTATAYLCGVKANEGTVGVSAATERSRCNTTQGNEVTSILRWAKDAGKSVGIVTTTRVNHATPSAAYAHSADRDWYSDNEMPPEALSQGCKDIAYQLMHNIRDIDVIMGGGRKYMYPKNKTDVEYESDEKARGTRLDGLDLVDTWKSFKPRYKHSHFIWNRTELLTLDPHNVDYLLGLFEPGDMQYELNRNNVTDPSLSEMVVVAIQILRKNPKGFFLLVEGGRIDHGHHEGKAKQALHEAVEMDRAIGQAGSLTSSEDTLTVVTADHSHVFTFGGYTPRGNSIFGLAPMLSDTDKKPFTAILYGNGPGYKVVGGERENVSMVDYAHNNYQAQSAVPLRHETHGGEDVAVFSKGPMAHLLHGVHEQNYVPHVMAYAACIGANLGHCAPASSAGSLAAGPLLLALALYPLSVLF

[12] = biological target: T3, G-protein coupled receptor 55; test: inhibition of LPI-stimulated GPR55 beta-arrestin translocation – imaging, U2OS, beta-arrestin-GFP, LPI agonist, primary screen (AID 2013); type: functional;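 note: antagonist potency measured as reduced agonist-driven arrestin aggregation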
[13] = viability of uninfected HEp-2 cells – cell-based, HTS, cytotoxicity control for RSV inhibitor project, dose response (AID 2410); type: functional; settings: human respiratory syncytial virus
[14] = viability of HCT116 lacking mutant beta-catenin – cell-based, human colon tumor, dose response (AID 1045); type: functional;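 note: HCT116 colon tumor cells with beta catenin knocked out; cells exposed to compound for 60 hours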
[15] = biological target: Induced myeloid leukemia cell differentiation protein Mcl-1 (Homo sapiens, UniProt Q07820); type: functional
Sequence of Induced myeloid leukemia cell differentiation protein Mcl-1 (Q07820 whole entry): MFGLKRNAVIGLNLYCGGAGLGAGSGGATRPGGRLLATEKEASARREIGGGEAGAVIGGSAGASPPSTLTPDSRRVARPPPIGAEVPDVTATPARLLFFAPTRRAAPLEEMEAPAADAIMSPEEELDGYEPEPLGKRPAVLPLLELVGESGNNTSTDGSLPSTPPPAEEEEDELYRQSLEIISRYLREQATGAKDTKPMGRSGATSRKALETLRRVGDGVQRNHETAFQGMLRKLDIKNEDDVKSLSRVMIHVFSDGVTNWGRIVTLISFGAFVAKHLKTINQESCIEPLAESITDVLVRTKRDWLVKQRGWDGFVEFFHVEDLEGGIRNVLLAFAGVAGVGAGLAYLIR

[16] = biological target: DNA damage-inducible transcript 3 protein (Mus musculus, UniProt P35639); type: functional, Cricetulus griseus
Sequence of DNA damage-inducible transcript 3 protein (P35639 whole entry): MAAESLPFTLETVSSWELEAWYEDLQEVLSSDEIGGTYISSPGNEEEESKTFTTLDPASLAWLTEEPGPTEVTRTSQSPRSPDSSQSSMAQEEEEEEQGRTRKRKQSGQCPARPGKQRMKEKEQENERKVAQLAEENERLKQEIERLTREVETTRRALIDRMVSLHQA

[17] = biological target: T6, Small ubiquitin-related modifier 1 (Homo sapiens, UniProt P63165); test: SUMO1 protein interaction blockers, potency – biochemical, fluorescence polarization, uHTS hits, dose response (AID 624382); type: functional; settings: read-out: IC50_Mean
T6 sequence (P63165 whole entry): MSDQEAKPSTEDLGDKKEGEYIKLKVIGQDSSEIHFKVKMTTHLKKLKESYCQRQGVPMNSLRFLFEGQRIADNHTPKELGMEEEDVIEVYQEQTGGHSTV

[18] = biological target: T6, Small ubiquitin-related modifier 1; test: SUMO1 protein-protein binding blockers, potency – biochemical, FRET, dose response (AID 624383); type: functional; settings: read-out: IC50_Mean
[19] = viability of PTEN-deleted HCT116 cells – cell-based, HCT116 PTEN knockout, dose response (AID 1047); type: functional;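 note: HCT116 colon tumor cells with PTEN knocked out; cells exposed to compound for 60 hours before readout; potency for loss of cell viability measured by luminescence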
[20] = Vero E6 cell cytotoxicity, dose response, cytotoxicity control for non-replicating M. tuberculosis project, secondary assay (AID 492998); type: functional, VeroE6; settings: Vero C1008
[21] = cells; type: functional
[22] = THP-1 cell cytotoxicity, dose response, cytotoxicity control for non-replicating M. tuberculosis project (AID 489025); type: functional
[23] = biological target: T7, High affinity choline transporter 1 (Homo sapiens, UniProt Q9GZV3); test: human choline transporter blockers, potency – cell-based, 5-point CRC, membrane potential dye, dose response (AID 504840); type: functional
T7 sequence (Q9GZV3 whole entry): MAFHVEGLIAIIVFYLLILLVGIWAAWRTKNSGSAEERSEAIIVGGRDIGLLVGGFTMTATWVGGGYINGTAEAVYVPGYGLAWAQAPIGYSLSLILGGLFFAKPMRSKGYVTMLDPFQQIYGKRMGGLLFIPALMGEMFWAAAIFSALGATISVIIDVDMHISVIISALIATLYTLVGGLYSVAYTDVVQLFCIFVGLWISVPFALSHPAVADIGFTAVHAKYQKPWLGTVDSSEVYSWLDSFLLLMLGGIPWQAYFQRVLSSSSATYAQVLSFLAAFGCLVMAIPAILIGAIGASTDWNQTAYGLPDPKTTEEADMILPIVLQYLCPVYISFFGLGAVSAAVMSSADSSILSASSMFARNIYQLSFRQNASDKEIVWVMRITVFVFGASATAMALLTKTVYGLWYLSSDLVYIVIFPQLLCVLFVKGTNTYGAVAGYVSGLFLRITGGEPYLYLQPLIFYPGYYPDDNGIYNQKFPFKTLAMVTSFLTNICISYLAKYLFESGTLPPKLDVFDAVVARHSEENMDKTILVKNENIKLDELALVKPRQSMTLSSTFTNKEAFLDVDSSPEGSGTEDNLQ

[24] = biological target: T8, Ubiquitin-conjugating enzyme E2 N (Homo sapiens, UniProt P61088); type: functional
T8 sequence (P61088 whole entry): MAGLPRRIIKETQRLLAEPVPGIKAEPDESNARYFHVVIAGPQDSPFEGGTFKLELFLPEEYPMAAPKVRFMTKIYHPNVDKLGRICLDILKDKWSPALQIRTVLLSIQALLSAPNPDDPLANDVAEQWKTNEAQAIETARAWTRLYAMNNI

[25] = biological target: Bcl-2-related protein A1 (Mus musculus, UniProt Q07440); type: functional;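 note: confirmatory dose–response counterscreen on Bfl-1, used to check hits from a UBC13 polyubiquitin inhibitor campaign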
Sequence of Bcl-2-related protein A1 (Q07440 whole entry): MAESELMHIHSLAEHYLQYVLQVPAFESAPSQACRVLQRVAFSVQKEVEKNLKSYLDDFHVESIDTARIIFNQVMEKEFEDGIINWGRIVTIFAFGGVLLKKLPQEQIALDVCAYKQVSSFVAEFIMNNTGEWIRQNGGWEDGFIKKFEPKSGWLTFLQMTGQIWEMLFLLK

[26] = biological target: T8, Ubiquitin-conjugating enzyme E2 N; type: functional; remark: listed apart in the source
[27] = biological target: Voltage-dependent T-type calcium channel subunit alpha-1H (Homo sapiens, UniProt O95180); test: human CACNA1H calcium influx blockade – cell-based, synthetic library set 2, HEK293 HH8, Fluo-4, SAR follow-up (AID 493023); type: functional
[28] = biological target: Troponin, cardiac muscle (Homo sapiens, UniProt P19429+P45379+P63316); test: Fluorescence-based biochemical high throughput dose response assay for activators of the calcium sensitivity of cardiac Regulated Thin Filaments (RTF). [Related pubchem assays (depositor defined):AID493008, AID493018, AID504382, AID504383]; type: protein-complex assay
[29] = biological target: Cytochrome P450 2C19 (Homo sapiens, UniProt P33261); test: Cytochrome panel assay with activity outcomes. Panel member name: p450-cyp2c19 Compounds with AC50 equal or less than 10 uM are considered active; type: functional; settings: read-out: AC50
Sequence of Cytochrome P450 2C19 (P33261 whole entry, the tested form may be a part): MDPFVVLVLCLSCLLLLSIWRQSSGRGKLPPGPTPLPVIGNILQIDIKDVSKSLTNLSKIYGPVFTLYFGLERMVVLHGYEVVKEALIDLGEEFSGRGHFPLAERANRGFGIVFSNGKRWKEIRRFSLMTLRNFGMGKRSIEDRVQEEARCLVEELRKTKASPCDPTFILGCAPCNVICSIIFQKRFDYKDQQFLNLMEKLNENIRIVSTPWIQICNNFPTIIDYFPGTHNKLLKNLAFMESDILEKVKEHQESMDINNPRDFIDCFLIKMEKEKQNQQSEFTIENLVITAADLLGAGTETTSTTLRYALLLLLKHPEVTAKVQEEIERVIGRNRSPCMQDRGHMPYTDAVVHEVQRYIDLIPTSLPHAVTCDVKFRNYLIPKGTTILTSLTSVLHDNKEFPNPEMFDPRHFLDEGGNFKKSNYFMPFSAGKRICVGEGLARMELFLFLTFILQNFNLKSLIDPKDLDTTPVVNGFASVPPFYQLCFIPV

[30] = biological target: Type-1 angiotensin II receptor (Homo sapiens, UniProt P30556); test: agonist activity at AGTR1 – cell-based, uHTS hits, selectivity assay for APJ receptor agonist project, dose response (AID 488865); type: functional;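 note: beta-arrestin recruitment to AT1 measured by enzyme fragment complementation luminescence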
Sequence of Type-1 angiotensin II receptor (P30556 whole entry, the tested form may be a part): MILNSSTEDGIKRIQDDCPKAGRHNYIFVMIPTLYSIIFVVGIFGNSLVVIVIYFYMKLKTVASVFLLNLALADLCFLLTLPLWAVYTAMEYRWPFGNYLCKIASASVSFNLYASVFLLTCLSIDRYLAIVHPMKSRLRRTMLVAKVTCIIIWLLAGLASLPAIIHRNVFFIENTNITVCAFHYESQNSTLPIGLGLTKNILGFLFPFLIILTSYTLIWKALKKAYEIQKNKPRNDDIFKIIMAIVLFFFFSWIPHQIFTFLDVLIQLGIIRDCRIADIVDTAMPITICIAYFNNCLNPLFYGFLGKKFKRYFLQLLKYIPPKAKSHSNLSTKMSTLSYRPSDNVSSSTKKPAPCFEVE

[31] = biological target: T9, Cytochrome P450 3A4 (Homo sapiens, UniProt P08684)
T9 sequence (P08684 whole entry): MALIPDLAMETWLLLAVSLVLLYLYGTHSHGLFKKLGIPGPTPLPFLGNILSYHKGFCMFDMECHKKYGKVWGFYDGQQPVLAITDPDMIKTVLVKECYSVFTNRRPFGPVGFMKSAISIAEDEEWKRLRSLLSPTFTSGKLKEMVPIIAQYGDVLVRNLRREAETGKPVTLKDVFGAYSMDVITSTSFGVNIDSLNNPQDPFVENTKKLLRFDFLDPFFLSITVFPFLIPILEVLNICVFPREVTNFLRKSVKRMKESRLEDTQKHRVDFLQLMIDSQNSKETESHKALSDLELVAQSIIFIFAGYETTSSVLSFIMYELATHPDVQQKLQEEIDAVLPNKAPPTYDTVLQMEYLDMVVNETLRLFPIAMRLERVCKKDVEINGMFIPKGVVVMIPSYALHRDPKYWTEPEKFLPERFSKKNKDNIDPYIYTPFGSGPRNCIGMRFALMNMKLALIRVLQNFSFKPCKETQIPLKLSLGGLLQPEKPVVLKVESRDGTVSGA

[32] = biological target: E3 ubiquitin-protein ligase Mdm2/Protein Mdm4 (Homo sapiens, UniProt O15151+Q00987); test: disruption of Mdm2/MdmX protein binding – luminescence detection, dose response (AID 504593); type: functional
Sequence of E3 ubiquitin-protein ligase Mdm2/Protein Mdm4 (Q00987 whole entry): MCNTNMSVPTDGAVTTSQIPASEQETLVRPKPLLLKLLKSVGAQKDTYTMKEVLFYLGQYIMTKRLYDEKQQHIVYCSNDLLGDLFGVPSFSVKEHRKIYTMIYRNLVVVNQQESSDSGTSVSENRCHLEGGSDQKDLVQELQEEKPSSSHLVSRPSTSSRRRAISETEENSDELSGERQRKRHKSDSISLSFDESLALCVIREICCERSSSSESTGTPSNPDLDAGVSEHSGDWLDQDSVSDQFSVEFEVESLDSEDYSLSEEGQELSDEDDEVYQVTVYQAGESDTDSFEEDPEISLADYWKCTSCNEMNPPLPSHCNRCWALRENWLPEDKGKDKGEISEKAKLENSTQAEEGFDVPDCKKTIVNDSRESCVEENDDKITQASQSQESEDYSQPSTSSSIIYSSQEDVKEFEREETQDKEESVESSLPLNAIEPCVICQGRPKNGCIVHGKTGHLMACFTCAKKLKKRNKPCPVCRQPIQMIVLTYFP
Sequence of E3 ubiquitin-protein ligase Mdm2/Protein Mdm4 (O15151 whole entry): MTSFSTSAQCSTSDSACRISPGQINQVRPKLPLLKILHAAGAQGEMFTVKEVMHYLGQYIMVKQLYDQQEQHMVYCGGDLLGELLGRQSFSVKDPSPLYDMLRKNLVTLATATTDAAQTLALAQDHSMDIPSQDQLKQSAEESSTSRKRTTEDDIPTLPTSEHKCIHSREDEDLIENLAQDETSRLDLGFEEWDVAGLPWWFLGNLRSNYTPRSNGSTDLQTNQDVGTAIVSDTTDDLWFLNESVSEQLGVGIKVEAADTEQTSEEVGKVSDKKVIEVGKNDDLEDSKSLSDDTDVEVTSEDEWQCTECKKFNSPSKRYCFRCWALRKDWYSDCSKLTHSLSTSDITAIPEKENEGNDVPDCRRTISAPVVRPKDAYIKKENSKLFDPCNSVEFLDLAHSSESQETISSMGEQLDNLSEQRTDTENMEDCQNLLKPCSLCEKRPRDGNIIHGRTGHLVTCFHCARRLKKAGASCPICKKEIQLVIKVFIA

[33] = biological target: T9, Cytochrome P450 3A4; settings: Potency

COc1cccc(/C=C2\SC(=S)N(CCCC(=O)Nc3ccc(C(=O)O)cc3)C2=O)c1
IC50 [1]: > 100 µM (inactive) | IC50 [2]: < 0.5 µM (active) | IC50 [3]: > 100 µM (inactive) | IC50 [4]: > 32 µM (inactive) | IC50 [5]: 0.691 µM (active) | IC50 [6]: 8.56 µM (active) | IC50 [7]: 32.3 µM (active)

Cc1ccc(NC(=O)c2cc(N3C(=O)CCC3=O)ccc2N2CCOCC2)cc1
EC50 [8]: 16.4 µM (active)

COc1ccccc1-c1nc(SCc2ccccc2F)n[nH]1
IC50 [9]: > 100 µM (not active) | IC50 [10]: > 100 µM (inactive) | IC50 [11]: 3.41 µM (active)

COc1ccc(-c2sc(Nc3ccccc3)n[n+]2-c2ccc(F)cc2)c(C)c1C
IC50 [12]: 2.11 µM (active) | CC50 [13]: 28.5 µM (active)

Fc1cc(F)c2nc(Nc3nc4cc5c(cc4s3)OCO5)sc2c1
EC50 [14]: 17.3 µM (active) | IC50 [15]: 1.12 µM (active) | Absolute IC50 (CHOP) [16]: 10 µM | IC50 [17]: > 66.6 µM (inactive) | IC50 [18]: 1.53 µM (active) | EC50 [19]: 18.6 µM (active)

O=c1c2ccccc2nc2cc(O)c(-c3ccccc3)nn12
CC50 [20]: 15.4 µM (active) | IC50 [21]: 4.34 µM (active) | CC50 [22]: > 40 µM (active)

COc1ccc(C(CNC(=O)c2cccc(NS(=O)(=O)c3ccc(C)c(F)c3)c2)N2CCCC2)cc1 (stereo not given)
IC50 [23]: 15.8 µM (active) | IC50 [24]: 11.7 µM (active) | IC50 [21]: 38 µM (active) | IC50 [25]: > 20 µM (inactive) | CC50 [22]: > 40 µM (active) | IC50 [26]: 15.3 µM (active)

CC(C)(C)CCN1CC2CCC(NC(=O)c3ccc(Cl)cc3Cl)C2C1 (stereo not given)
EC50 [27]: 0.36 µM (active)

O=C(COC(=O)c1ccc(O)cc1)Nc1ccc2c(c1)OCCO2
EC50 [28]: > 71.5 µM (inactive)

Clc1ccccc1CSc1nnc(-c2ccncc2)o1
AC50 [29]: 0.126 µM (inconclusive) | EC50 [30]: > 100 µM (inactive) | AC50 [31]: 20 µM (inconclusive)

CC(C)c1cccc(=O)c(O)c1 [HINOKITIOL]
IC50 [32]: 3.58 µM (active) | AC50 [33]: 0.631 µM (inconclusive)
